Test results reported in patent publication US20100063026A1, “ANTIBACTERIAL QUINOLINE DERIVATIVES” (priority 2007, published 2010).
Converted amounts (≈) assume the structure as drawn.

Columns and labels:
[1] = test system: M. smegmatis ATCC607; test: In-vitro anti-bacterial activity against strain M. smegmatis ATCC607; conditions: for IC90: Mycolicibacterium smegmatis, ATCC607, 48 h, read-out: IC90 MSM 1 ATCC607, 90% inhibitory concentration for bacterial growth, 37° C., Alamar Blue fluorescence; for IC90 MSM 1 ATCC607: 90% inhibitory concentration for bacterial growth, 48 hours, 37° C., Alamar Blue fluorescence
Description: Flat-bottom, sterile 96-well plastic microtiter plates were filled with 180 μl of sterile deionized water, supplemented with 0.25% BSA. Subsequently, stock solutions (7.8× final test concentration) of compounds were added in 45 μl volumes to a series of duplicate wells in column 2 so as to allow evaluation of their effects on bacterial growth. Serial five-fold dilutions (45 μl in 180 μl) were made directly in the microtiter plates from column 2 to 11 using a customised robot system (Zymark Corp., Hopkinton, Mass.). Pipette tips were changed after every 3 dilutions to minimize pipetting errors with high hydrophobic compounds. Untreated control samples with (column 1) and without (column 12) inoculum were included in each microtiter plate. Approximately 250 CFU per well of bacteria inoculum, in a volume of 100 μl in 2.8× Mueller-Hinton broth medium, was added to the rows A to H, except column 12. The same volume of broth medium without inoculum was added to column 12 in row A to H. The cultures were incubated at 37° C. for 48 hours in a humidified 5% CO2 atmosphere (incubator with open air valve and continuous ventilation). At the end of incubation, two days after inoculation, the bacterial growth was quantitated fluorometrically. Therefore Alamar Blue (10×) was added to all wells in a volume of 20 μl and plates were incubated for another 2 hours at 50° C.
The fluorescence was read in a computer-controlled fluorometer (Cytofluor, Biosearch) at an excitation wavelength of 530 nm and an emission wavelength of 590 nm (gain 30). The percentage growth inhibition achieved by the compounds was calculated according to standard methods and expressed as IC90 (μg/ml) which defines the 90% inhibitory concentration for bacterial growth.

[2] = test system: Staphylococcus aureus (ATCC29213); test: Microtitre plate IC90 determination against non-mycobacterial strains: S. aureus; type: cell-based; conditions: 90% inhibitory concentration for bacterial growth, 37° C., resazurin fluorescence; for IC90: Staphylococcus aureus, ATCC29213, 24 h, read-out: IC90 STA 1 B29213; for IC90 STA 1 B29213: 24 hours
Description: (§1) The bacteria used in this study were grown overnight in flasks containing 100 ml Mueller-Hinton Broth (Becton Dickinson-cat. no. 275730) in sterile de-ionized water, with shaking, at 37° C. Stocks (0.5 ml/tube) were stored at -70° C. until use. Bacteria titrations were performed in microtiter plates to detect the TCID50, in which the TCID50 represents the dilution that gives rise to bacterial growth in 50% of inoculated cultures. In general, an inoculum level of approximately 100 TCID50 was used for susceptibility testing. […] Therefore resazurin (0.6 mg/ml) was added in a volume of 20 μl to all wells 3 hours after inoculation, and the plates were re-incubated overnight. A change in colour from blue to pink indicated the growth of bacteria.

[3] = test system: Streptococcus pneumoniae (ATCC6305); test: Microtitre plate IC90 determination against non-mycobacterial strains: S. pneumoniae; type: cell-based; conditions: 90% inhibitory concentration for bacterial growth, 37° C., resazurin fluorescence; for IC90: Streptococcus pneumoniae, ATCC6305, 24 h, read-out: IC90 SPN 1 6305; for IC90 SPN 1 6305: 24 hours
Description: as §1

SMILES | IC90 [1] [µg/mL] | IC90 [2] [µg/mL] | IC90 [3] [µg/mL] | IC90 MSM 1 ATCC607 [1] [µg/mL] | IC90 STA 1 B29213 [2] [µg/mL] | IC90 SPN 1 6305 [3] [µg/mL]
COc1nc2ccc(Br)cc2cc1C(c1ccccc1)C(O)(CCCCN1CCN(C(C)=O)CC1)c1ccccc1 (single isomer, unassigned) [Compound 3] | 4.9 (≈ 7.95 µM) | 61.7 (≈ 100 µM) | 9.8 (≈ 15.9 µM) |  |  | 
COc1nc2ccc(Br)cc2cc1C(c1ccccc1)C(O)(CCCCN(C)C1CCN(C)CC1)c1ccccc1 (single isomer, unassigned) [Compound 4] | 2 (≈ 3.24 µM) | 9.8 (≈ 15.9 µM) | 2 (≈ 3.24 µM) |  |  | 
COc1nc2ccc(Br)cc2cc1C(c1ccccc1)C(O)(CCCCN(C)C1CCN(C)CC1)c1ccccc1 (single isomer, unassigned) [Compound 5] |  |  |  | 2.0 (≈ 3.24 µM) | 7.8 (≈ 12.6 µM) | 2.0 (≈ 3.24 µM)
COc1nc2ccc(Br)cc2cc1C(c1ccccc1)C(O)(CCCCN1CCC(N2CCCCC2)CC1)CCc1ccccc1 (single isomer, unassigned) [Compound 10] |  |  |  | 2.4 (≈ 3.5 µM) | 2.2 (≈ 3.21 µM) | 2.2 (≈ 3.21 µM)
COc1nc2ccc(Br)cc2cc1C(c1ccccc1)C(O)(CCCCN1CC2CC1CN2Cc1ccccc1)CCc1ccccc1 (single isomer, unassigned) [Compound 12] |  |  | 2.2 (≈ 3.12 µM) | 2.2 (≈ 3.12 µM) | 11.2 (≈ 15.9 µM) | 
COc1nc2ccc(Br)cc2cc1C(c1ccccc1)C(O)(CCCCN1CC2CC1CN2Cc1ccccc1)CCc1ccccc1 (single isomer, unassigned) [Compound 13] |  |  |  | 5.6 (≈ 7.95 µM) | 2.2 (≈ 3.12 µM) | 2.5 (≈ 3.55 µM)
COc1nc2ccc(Br)cc2cc1C(c1ccccc1)C(O)(CCCCN1CC2CC1CN2Cc1ccccc1)CCCc1ccccc1 (single isomer, unassigned) [Compound 14] | 3.6 (≈ 5.01 µM) | 11.4 (≈ 15.9 µM) | 2.6 (≈ 3.62 µM) |  |  | 
COc1nc2ccc(Br)cc2cc1C(c1ccccc1)C(O)(CCCCN1CC2CC1CN2Cc1ccccc1)CCCc1ccccc1 (single isomer, unassigned) [Compound 15] |  |  |  | 4.0 (≈ 5.56 µM) | 11.4 (≈ 15.9 µM) | 2.6 (≈ 3.62 µM)
COc1nc2ccc(Br)cc2cc1C(c1ccccc1)C(O)(CCCCc1ccccc1)CCCCN1CC2CC1CN2Cc1ccccc1 (single isomer, unassigned) [Compound 16] | 0.6 (≈ 0.819 µM) |  | 1.5 (≈ 2.05 µM) |  | 7.3 (≈ 9.96 µM) | 
COc1nc2ccc(Br)cc2cc1C(c1ccccc1)C(O)(CCCCc1ccccc1)CCCCN1CC2CC1CN2Cc1ccccc1 (single isomer, unassigned) [Compound 17] |  |  |  | 0.7 (≈ 0.955 µM) | 2.3 (≈ 3.14 µM) | 0.8 (≈ 1.09 µM)
COc1nc2ccccc2cc1C(c1ccccc1)C(O)(CCCCN1CC2CC1CN2)c1ccc2ccccc2c1 (single isomer, unassigned) [Compound 18] | 1.8 (≈ 3.23 µM) | 1.8 (≈ 3.23 µM) | 1.8 (≈ 3.23 µM) |  |  | 
COc1nc2ccccc2cc1C(c1ccccc1)C(O)(CCCCN1CC2CC1CN2)c1ccc2ccccc2c1 (single isomer, unassigned) [Compound 19] |  |  |  | 1.6 (≈ 2.87 µM) | 1.8 (≈ 3.23 µM) | 2.2 (≈ 3.94 µM)
COc1nc2ccc(Br)cc2cc1C(c1ccccc1)C(O)(CCCCN1CC2CC1CN2Cc1ccccc1)c1ccc2ccccc2c1 (single isomer, unassigned) [Compound 20] |  |  | 0.6 (≈ 0.826 µM) | 2.3 (≈ 3.16 µM) | 11.5 (≈ 15.8 µM) | 
COc1nc2ccc(Br)cc2cc1C(c1ccccc1)C(O)(CCCCN1CC2CC1CN2Cc1ccccc1)c1ccc2ccccc2c1 (single isomer, unassigned) [Compound 21] |  |  |  | 5.8 (≈ 7.98 µM) | 2.3 (≈ 3.16 µM) | 0.6 (≈ 0.826 µM)
COc1nc2ccc(Br)cc2cc1C(c1ccccc1)C(O)(CCCCN1CC2CC1CN2CCc1ccccc1)c1ccc2ccccc2c1 (single isomer, unassigned) [Compound 24] | 2.3 (≈ 3.1 µM) |  |  |  | 11.7 (≈ 15.8 µM) | 2.1 (≈ 2.83 µM)
COc1ccc(N2CCN(CCCCC(O)(c3ccc4ccccc4c3)C(c3ccccc3)c3cc4cc(Br)ccc4nc3OC)CC2)cc1 (single isomer, unassigned) [Compound 26] | 18.4 (≈ 25.2 µM) | 18.4 (≈ 25.2 µM) | 18.4 (≈ 25.2 µM) |  |  | 

SMILES | IC90 [1] [µg/mL] | IC90 [2] [µg/mL] | IC90 [3] [µg/mL] | IC90 MSM 1 ATCC607 [1] [µg/mL] | IC90 STA 1 B29213 [2] [µg/mL] | IC90 SPN 1 6305 [3] [µg/mL]
COc1ccc(N2CCN(CCCCC(O)(c3ccc4ccccc4c3)C(c3ccccc3)c3cc4cc(Br)ccc4nc3OC)CC2)cc1 (single isomer, unassigned) [Compound 27] |  |  |  |  | 18.4 (≈ 25.2 µM) | 
COc1nc2ccc(Br)cc2cc1C(c1ccccc1)C(O)(CCCCN1CCC(N2CCCCC2)CC1)c1ccc2ccccc2c1 (single isomer, unassigned) [Compound 28] | 2.5 (≈ 3.54 µM) |  |  |  | 2.2 (≈ 3.11 µM) | 2.8 (≈ 3.96 µM)
COc1nc2ccc(Br)cc2cc1C(c1ccccc1)C(O)(CCCCN1CCN(C2CCN(Cc3ccccc3)C2)CC1)c1ccc2ccccc2c1 (single isomer, unassigned) [Compound 30] |  |  |  | 2.5 (≈ 3.19 µM) | 2.5 (≈ 3.19 µM) | 2.5 (≈ 3.19 µM)
COc1nc2ccc(Br)cc2cc1C(c1ccccc1)C(O)(CCCCN1CCN(C2CCN(Cc3ccccc3)C2)CC1)c1ccc2ccccc2c1 (single isomer, unassigned) [Compound 30b] |  |  |  | 31 (≈ 39.5 µM) | 62 (≈ 79.1 µM) | 31 (≈ 39.5 µM)
COc1nc2ccc(Br)cc2cc1C(c1ccccc1)C(O)(CCCCN1CCN(C2CCN(Cc3ccccc3)C2)CC1)c1ccc2ccccc2c1 (single isomer, unassigned) [Compound 31] |  |  |  | 4.4 (≈ 5.61 µM) | 12.4 (≈ 15.8 µM) | 15.6 (≈ 19.9 µM)
COc1nc2ccc(Br)cc2cc1C(c1ccccc1)C(O)(CCCCN1CCCN(C)CC1)c1ccc2ccccc2c1 (single isomer, unassigned) [Compound 34] | 2.1 (≈ 3.22 µM) | 2.1 (≈ 3.22 µM) |  |  |  | 
CN1CCCN(CCCCC(O)(c2ccc3ccccc3c2)C(c2ccccc2)c2cc3cc(Br)ccc3[nH]c2=O)CC1 (single isomer, unassigned) [Compound 45] | 2 (≈ 3.13 µM) |  |  |  | 2.3 (≈ 3.6 µM) | 
COc1nc2ccc(Br)cc2cc1C(c1ccccc1)C(O)(CCCCN1CC2CC1CN2C)c1ccc2ccccc2c1 (single isomer, unassigned) [Compound 56] | 2.1 (≈ 3.23 µM) | 2.3 (≈ 3.53 µM) |  |  |  | 
COc1nc2ccc(Br)cc2cc1C(c1ccccc1)C(O)(CCCCN1CC2CC1CN2C)c1ccc2ccccc2c1 (single isomer, unassigned) [Compound 57] |  |  |  | 2.1 (≈ 3.23 µM) | 2.3 (≈ 3.53 µM) | 
COc1nc2ccc(Br)cc2cc1C(c1ccccc1)C(O)(CCCCN1CC2CC1CN2CCN(C)C)c1ccc2ccccc2c1 (single isomer, unassigned) [Compound 61] | 2.2 (≈ 3.11 µM) | 2.2 (≈ 3.11 µM) |  |  |  | 
COc1nc2ccc(Br)cc2cc1C(c1ccccc1)C(O)(CCCCN1CC2CC1CN2CCN(C)C)c1ccc2ccccc2c1 (single isomer, unassigned) [Compound 62] |  |  |  |  | 2.2 (≈ 3.11 µM) | 
COc1nc2ccc(Br)cc2cc1C(c1ccccc1)C(O)(CCCCN1CC2CC1CN2C1CCN(C)CC1)c1ccc2ccccc2c1 (single isomer, unassigned) [Compound 63] | 2.3 (≈ 3.13 µM) | 2.3 (≈ 3.13 µM) |  |  |  | 
COc1nc2ccc(Br)cc2cc1C(c1ccccc1)C(O)(CCCCN1CC2CC1CN2C1CCN(C)CC1)c1ccc2ccccc2c1 (single isomer, unassigned) [Compound 64] |  |  |  | 1.3 (≈ 1.77 µM) | 2.3 (≈ 3.13 µM) | 
COc1nc2ccc(Br)cc2cc1C(c1ccccc1)C(O)(CCCCNCCN(C)C)c1ccccc1 (single isomer, unassigned) [Compound 65] | 1.8 (≈ 3.12 µM) | 1.8 (≈ 3.12 µM) |  |  |  | 
COc1nc2ccc(Br)cc2cc1C(c1ccccc1)C(O)(CCCCNCCN(C)C)c1ccccc1 (single isomer, unassigned) [Compound 66] |  |  |  |  | 1.8 (≈ 3.12 µM) | 
COc1nc2ccc(Br)cc2cc1C(c1ccccc1)C(O)(CCCCNC1CC2CCC1C2)c1ccccc1 (stereo not drawn) [Compound 60] | 1.9 (≈ 3.17 µM) | 1.9 (≈ 3.17 µM) |  |  |  | 
